From PubChem BioAssay AID2060497 (Molecular Pharmacology Branch, DTP, NCI, 2025)

System: 317291-083-R-J1-PDC complex spheroids, viability
Experiment: Anticancer human tumor 317291-083-R-J1-PDC patient-derived soft tissue sarcoma cell line growth inhibition [GQUAD]
Conditions: for IC50: curve of first compound; for viability, T/C: stronger effect = lower value
Description: DNA G-quadruplex Stabilizer Agents in Combinations in Complex Spheroids
A high-throughput screen of multi-cell type tumor spheroids was designed to identify active combinations of DNA G-quadruplex stabilizer agents and targeted small molecules. Complex spheroids include a stromal component modeled by human endothelial cells (HUVEC) and fibroblasts modeled by human mesenchymal stem cells (MSCs). The concentration ranges selected for each drug and investigational agent were based upon clinically achievable concentrations if the clinical Cmax of the agent was known.
Compounds. The drugs and investigational agents: pidnarulex (CX-5461; NSC782164), APTO-253 (NSC789042), BRACO-19 (NSC847499), peposertib (NSC802822), ceralasertib (NSC780249), elimusertib (NSC800525), camonsertib (NSC841442), AZD-1390 (NSC803789), olaparib (NSC753686), talazoparib (NSC767125), ART-558 (NSC835418), sotorasib (NSC818433), MRTX-1133 (NSC836407), SN-38 (NSC673596), topotecan (NSC609699), etoposide (NSC141540), doxorubicin (NSC123127), gemcitabine (NSC613327), 5-fluorouracil (NSC19893), paclitaxel (NSC125973), vemurafenib (NSC761431), panobinostat (NSC761190), R-306465 (JNJ-16241199; NSC773264), adavosertib (NSC754352), TP-3654 (NSC805149), carboplatin (NSC241240), KSQ-4279 (NSC840948), and staurosporine (NSC755774) were obtained from the National Cancer Institute (NCI) Developmental Therapeutics Program Chemical Repository (34). The FDA-approved anticancer drug set is available from the NCI Developmental Therapeutics Program. […] The stock solutions were prepared in dimethyl sulfoxide (DMSO, Sigma-Aldrich, St. Louis, MO, cat. D2650) at 800-fold the tested concentration and stored at -70 degrees C prior to their use. All drugs and investigational agents were tested over a range starting from a high concentration at or near the clinical Cmax and decreasing in half-log increments. If the clinical Cmax for an agent had not been determined, the highest concentration tested was 10 microM.
2.3 Cell Culture. All cells were maintained in an incubator at 37 degrees C and 5% CO2 with 95% humidity. The PDC lines were cultured according to standard operating procedures established by the NCI PDMR. All PDCs were thawed and cultured in Matrigel-coated flasks prepared with a working solution of 1X Ham's F-12 nutrient mix, without supplementation (Invitrogen, cat. 11765054), 100 U/mL penicillin-streptomycin (Invitrogen, cat. 15140122), and 2.5% Matrigel (Corning Inc., cat. 354248) for the first three passages. The 857933-349-R-J2-PDC line was cultured in 6C/Colon 1B media, which includes advanced DMEM/F-12 (Thermo Fisher Scientific, cat. 12634028), 10 mM HEPES (Thermo Fisher Scientific, cat. 15630080), 1X GlutaMAX supplement (Thermo Fisher Scientific, cat. 35050061), 0.1 mg/mL primocin (InvivoGen, cat. ant-pm-2), 10% defined fetal bovine serum, heat inactivated (HyClone Laboratories Inc., cat. SH30070.03HI), 50% L-WRN conditioned media (ATCC, cat. CRL-3276), 1.25 mM N-Acetyl-L-cysteine (Sigma-Aldrich, cat. A9165), 10 mM nicotinamide (Sigma-Aldrich, cat. N0636), 1X B-27 supplement (Thermo Fisher Scientific, cat. 17504044), 1X N-2 supplement (Thermo Fisher Scientific, cat. 17502048), 10 microM Y-27632 dihydrochloride (Tocris Bioscience, cat. 1254), and 50 ng/mL human EGF recombinant protein (Thermo Fisher Scientific, cat. PHG0311). The 485176-168-R4-J1-PDC line was cultured in Panc media, which includes all 6C/Colon 1B media components plus 100 ng/mL human FGF-10 (Thermo Fisher Scientific, cat. 100-26), 500 nM SB-431542 (Selleckchem, cat. S1067), and gastrin (Tocris, cat. 3006).
[…]

[1] = second compound 0.0316 µM, first compound 0.0316 µM
[2] = second compound 0.0316 µM, first compound 0.1 µM
[3] = second compound 0.0316 µM, first compound 0.316 µM
[4] = second compound 0.0316 µM, first compound 1 µM
[5] = second compound 0.0316 µM, first compound 3.16 µM
[6] = second compound 0.0316 µM, first compound 10 µM
[7] = second compound 0.1 µM, first compound 0.0316 µM
[8] = second compound 0.1 µM, first compound 0.1 µM
[9] = second compound 0.1 µM, first compound 0.316 µM
[10] = second compound 0.1 µM, first compound 1 µM
[11] = second compound 0.1 µM, first compound 3.16 µM
[12] = second compound 0.1 µM, first compound 10 µM
[13] = second compound 0.316 µM, first compound 0.0316 µM
[14] = second compound 0.316 µM, first compound 0.1 µM
[15] = second compound 0.316 µM, first compound 0.316 µM
[16] = second compound 0.316 µM, first compound 1 µM
[17] = second compound 0.316 µM, first compound 3.16 µM
[18] = second compound 0.316 µM, first compound 10 µM
[19] = second compound 1 µM, first compound 0.0316 µM
[20] = second compound 1 µM, first compound 0.1 µM
[21] = second compound 1 µM, first compound 0.316 µM
[22] = second compound 1 µM, first compound 1 µM
[23] = second compound 1 µM, first compound 3.16 µM
[24] = second compound 1 µM, first compound 10 µM
[25] = second compound 3.16 µM, first compound 0.0316 µM
[26] = second compound 3.16 µM, first compound 0.1 µM
[27] = second compound 3.16 µM, first compound 0.316 µM
[28] = second compound 3.16 µM, first compound 1 µM
[29] = second compound 3.16 µM, first compound 3.16 µM
[30] = second compound 3.16 µM, first compound 10 µM
[31] = second compound 10 µM, first compound 0.0316 µM
[32] = second compound 10 µM, first compound 0.1 µM
[33] = second compound 10 µM, first compound 0.316 µM
[34] = second compound 10 µM, first compound 1 µM
[35] = second compound 10 µM, first compound 3.16 µM
[36] = second compound 10 µM, first compound 10 µM
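Also: spheroids exposed to compounds for one week before readout.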
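For viability, T/C in this document: percent viability relative to DMSO vehicle wells taken as 100%.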

CC1COCCN1c1cc(C2(O)CC3CCC(C2)O3)c2cnn(-c3ccn[nH]3)c2n1 (stereo unspecified) + CN(C)c1ccc(Nc2c3ccc(NC(=O)CCN4CCCC4)cc3nc3cc(NC(=O)CCN4CCCC4)ccc23)cc1
IC50 (second compound 0.0316 µM): 37.1 nM
IC50 (second compound 0.1 µM): < 31.6 nM
IC50 (second compound 0.316 µM): < 31.6 nM
IC50 (second compound 1 µM): < 31.6 nM
IC50 (second compound 3.16 µM): < 31.6 nM
IC50 (second compound 10 µM): < 31.6 nM
viability, T/C [1]: 54.7%
viability, T/C [2]: 21.6%
viability, T/C [3]: 16.4%
viability, T/C [4]: 16.2%
viability, T/C [5]: 12.9%
viability, T/C [6]: 2.01%
viability, T/C [7]: 50.5%
viability, T/C [8]: 25.5%
viability, T/C [9]: 18.2%
viability, T/C [10]: 15.3%
viability, T/C [11]: 11.1%
viability, T/C [12]: 3.17%
viability, T/C [13]: 44.2%
viability, T/C [14]: 17.4%
viability, T/C [15]: 12.6%
viability, T/C [16]: 12.1%
viability, T/C [17]: 12.8%
viability, T/C [18]: 2.37%
viability, T/C [19]: 23.5%
viability, T/C [20]: 10.9%
viability, T/C [21]: 8.42%
viability, T/C [22]: 5.55%
viability, T/C [23]: 7.51%
viability, T/C [24]: 1.2%
viability, T/C [25]: 15.1%
viability, T/C [26]: 9.28%
viability, T/C [27]: 6%
viability, T/C [28]: 3.23%
viability, T/C [29]: 4.27%
viability, T/C [30]: 0.57%
viability, T/C [31]: 4.09%
viability, T/C [32]: 3.93%
viability, T/C [33]: 2.46%
viability, T/C [34]: 2.16%
viability, T/C [35]: 2.2%
viability, T/C [36]: 0.34%

CC1COCCN1c1cc(C2(S(C)(=N)=O)CC2)nc(-c2ccnc3[nH]ccc23)n1 (stereo unspecified) + CN(C)c1ccc(Nc2c3ccc(NC(=O)CCN4CCCC4)cc3nc3cc(NC(=O)CCN4CCCC4)ccc23)cc1
IC50 (second compound 0.0316 µM): 956 nM
IC50 (second compound 0.1 µM): 1150 nM
IC50 (second compound 0.316 µM): 432 nM
IC50 (second compound 1 µM): 77.3 nM
IC50 (second compound 3.16 µM): < 31.6 nM
IC50 (second compound 10 µM): < 31.6 nM
viability, T/C [1]: 123%
viability, T/C [2]: 111%
viability, T/C [3]: 81.6%
viability, T/C [4]: 49.3%
viability, T/C [5]: 25.8%
viability, T/C [6]: 15.9%
viability, T/C [7]: 141%
viability, T/C [8]: 105%
viability, T/C [9]: 82.6%
viability, T/C [10]: 54.6%
viability, T/C [11]: 22.2%
viability, T/C [12]: 17.1%
viability, T/C [13]: 84.9%
viability, T/C [14]: 79.9%
viability, T/C [15]: 55.7%
viability, T/C [16]: 32%
viability, T/C [17]: 21.6%
viability, T/C [18]: 16.8%
viability, T/C [19]: 56.6%
viability, T/C [20]: 44.1%
viability, T/C [21]: 41.9%
viability, T/C [22]: 18.3%
viability, T/C [23]: 15.2%
viability, T/C [24]: 7.51%
viability, T/C [25]: 38%
viability, T/C [26]: 24.3%
viability, T/C [27]: 37.5%
viability, T/C [28]: 12.3%
viability, T/C [29]: 8.02%
viability, T/C [30]: 7.55%
viability, T/C [31]: 3.33%
viability, T/C [32]: 5.73%
viability, T/C [33]: 7.2%
viability, T/C [34]: 6.92%
viability, T/C [35]: 3.25%
viability, T/C [36]: 1.68%

COc1ccc([C@@H](O)c2cc(-c3ncnc4cc(N5CCOCC5)ccc34)c(F)cc2Cl)nn1 + CN(C)c1ccc(Nc2c3ccc(NC(=O)CCN4CCCC4)cc3nc3cc(NC(=O)CCN4CCCC4)ccc23)cc1
IC50 (second compound 0.0316 µM): 5630 nM
IC50 (second compound 0.1 µM): 4160 nM
IC50 (second compound 0.316 µM): 2040 nM
IC50 (second compound 1 µM): 114 nM
IC50 (second compound 3.16 µM): < 31.6 nM
IC50 (second compound 10 µM): < 31.6 nM
viability, T/C [1]: 111%
viability, T/C [2]: 108%
viability, T/C [3]: 94%
viability, T/C [4]: 89.4%
viability, T/C [5]: 67.4%
viability, T/C [6]: 33.1%
viability, T/C [7]: 104%
viability, T/C [8]: 97.5%
viability, T/C [9]: 104%
viability, T/C [10]: 82%
viability, T/C [11]: 57%
viability, T/C [12]: 31%
viability, T/C [13]: 85.2%
viability, T/C [14]: 76.3%
viability, T/C [15]: 71.6%
viability, T/C [16]: 61%
viability, T/C [17]: 43.5%
viability, T/C [18]: 21.9%
viability, T/C [19]: 57.5%
viability, T/C [20]: 42.6%
viability, T/C [21]: 47.9%
viability, T/C [22]: 42.5%
viability, T/C [23]: 28.8%
viability, T/C [24]: 12.8%
viability, T/C [25]: 22.4%
viability, T/C [26]: 24.1%
viability, T/C [27]: 32.2%
viability, T/C [28]: 15.5%
viability, T/C [29]: 8.93%
viability, T/C [30]: 6.58%
viability, T/C [31]: 12.8%
viability, T/C [32]: 15%
viability, T/C [33]: 3.27%
viability, T/C [34]: 5.49%
viability, T/C [35]: 11.5%
viability, T/C [36]: 1.01%
